Assay results taken from ChEMBL document CHEMBL2311520, “Total synthesis of AMF-26, an antitumor agent for inhibition of the Golgi system, targeting ADP-ribosylation factor 1” (J Med Chem, 2013).
Activity calls are given as the source filed them. No cut-off for these calls is given here.

What was measured:
[1] = Induction of golgi disassembly in human HBC4 cells assessed as presence of GBF1 in cytoplasm after 1 hr by immunofluorescence microscopy; type: functional, cell-based
[2] = Induction of golgi disassembly in human BSY1 cells assessed as presence of GBF1 in cytoplasm after 1 hr by immunofluorescence microscopy; type: functional, cell-based; settings: bsy-1
HBC4 [3] = experiment: Induction of golgi disassembly in human HBC4 cells assessed as presence of GBF1 in cytoplasm at 10 uM after 1 hr by immunofluorescence microscopy; type: functional, cell-based
BSY-1 [4] = experiment: Induction of golgi disassembly in human BSY1 cells assessed as presence of GBF1 in cytoplasm at 1 uM after 1 hr by immunofluorescence microscopy; type: functional, cell-based
[5] = Growth inhibition of human HBC4 cells after 48 hrs by Sulforhodamine B assay; type: functional; settings: Homo sapiens, HBC4, 48 h; read-out: GI50
[6] = Growth inhibition of human BSY1 cells after 48 hrs by Sulforhodamine B assay; type: functional; settings: BSY-1, 48 h, read-out: GI50
HBC4 [7] = experiment: Induction of golgi disassembly in human HBC4 cells assessed as presence of GBF1 in cytoplasm at 0.1 to 1 uM after 1 hr by immunofluorescence microscopy; type: functional, cell-based
BSY-1 [8] = experiment: Induction of golgi disassembly in human BSY1 cells assessed as presence of GBF1 in cytoplasm at 0.1 to 1 uM after 1 hr by immunofluorescence microscopy; type: functional, cell-based

Row | EC50 [1] [nM] | EC50 [2] [nM] | Structure (SMILES) | Activity (HBC4 [3]) | Activity (BSY-1 [4]) | GI50 [5] [nM] | GI50 [6] [nM] | Activity (HBC4 [7]) | Activity (BSY-1 [8])
1 | > 10000 | > 10000 | C[C@@H]1[C@@H](O)[C@H](C)C[C@@H]2C=C[C@H](C)[C@H](/C=C/C(=O)NCc3cccnc3)[C@@H]12 | inactive | inactive | > 10000 | > 10000 | – | –
2 | 340 | 850 | CC/C(=C\C=C\[C@@H]1[C@H]2[C@H](C)[C@@H](O)[C@H](C)C[C@@H]2C=C[C@@H]1C)C(=O)NCc1cccnc1 | – | – | 550 | 190 | Active | Active
